Measured values taken from patent publication US9452220B2, “Coupling compounds of NSAID anti-inflammatory and analgesic drugs and EGFR kinase inhibitors, synthesis methods and applications thereof” (Guangzhou Institutes of Biomedicine and Health, Chinese …, priority 2014, dated 2016).

Experiments:
[1] = tested on: HCC827 human non-small cell lung cancer cells; experiment: MTT cell activity assay, HCC827 cells; type: cell-based; conditions: 72 hrs with compound, absorption at 570 nm or 490 nm
Description: (§1) H1975/HCC827: human non-small cell lung cancer cells, PBS, MTT, DMEM culture medium, pancreatin, a multichannel pipette, a vortex mixer, a microplate reader, a biosafety cabinet, a 5% CO2 cell culture incubator, a cell counter, a microscope, a thermostatic water bath, and a 96-pore plate.
(§2) 1. H1975/HCC827 cells was cleaned with PBS, digested with pancreatin, centrifuged at room temperature for 5 min at 1000 rpm, re-suspended with an appropriate amount of culture medium, and counted by a cell counting plate. The cells were inoculated to the 96-pore plate by the multichannel pipette at 1000-2000 cells/pore/100 μl, with 6 complex pores for each concentration and totally 6 concentration gradients. The basis of the number of cells: upon final test, OD570 was between 0.2-0.8 (Lambert-Beer's Law).
(§3) 2. The compounds were prepared into […] of mother liquor by using DMSO. 10 μl of mother liquor was added into 90 μl of DMSO, and the mixture was uniformly mixed by the vortex mixer and diluted in turn for 5 times to obtain DMSO stock solution. The stock solution was stored at 4° C. for standby. The stock solution was uniformly mixed again before use and then added into a complete culture medium in 1:500 to serve as working solution, and then the mixture was mixed uniformly by the vortex mixer. The working solution needs to be immediately used after prepared well to avoid precipitation after long-term storage.
(§4) 3. The 96-pore plate was cultured in the cell incubator for 24 hrs, then added with 100 μl of the working solution prepared from the compounds, and continued to be cultured together for 72 hrs.
(§5) 4. The upper-layer culture medium was removed carefully, then 100 μl of culture medium containing MTT (0.5 mg/ml) was added again, and the culture medium was placed in the incubator for 4 hrs. The culture medium was removed completely, then 100 μl of DMSO was added, and the mixture was shocked uniformly. Preparation of MTT: 1.25 g of MTT was added into 250 ml of PBS, and then the mixture was mixed uniformly and stored away from light at 4° C.
(§6) 5. The light absorption value at 570 nm or 490 nm was detected by the microplate reader. EC50 was calculated and an added value curve was drawn by Graphpad.

[2] = tested on: H1975 human non-small cell lung cancer cells; experiment: MTT cell activity assay, H1975 cells; type: cell-based; conditions: NCI-H1975, 72 hrs with compound, absorption at 570 nm or 490 nm
Description: as §1, §2, §3, §4, §5, §6

C#Cc1cccc(Nc2ncnc3cc(OCCOC(=O)C(C)c4ccc(C(=O)c5ccccc5)cc4)c(OCCOC(=O)C(C)c4ccc(C(=O)c5ccccc5)cc4)cc23)c1 (stereo not shown) [Embodiment 17, 2,2′-(4-(3-ethynylaniline)quinazoline-6,7-diene)di(oxy)bis(ethyl-2,1-diene)-bis(2-(4-benzoylphenyl)propanoic acid)]
EC50 [1]: 1.5 µM

C#Cc1cccc(Nc2ncnc3cc(OCCOC(=O)Cc4c(C)n(C(=O)c5ccc(Cl)cc5)c5ccc(OC)cc45)c(OCCOC(=O)Cc4c(C)n(C(=O)c5ccc(Cl)cc5)c5ccc(OC)cc45)cc23)c1 [Embodiment 22, 2,2′-(4-(3-ethynylaniline)quinazoline-6,7-diene)di(oxy)bis(ethyl-2,1-diene)-bis(2-(1-(4-chlorobenzoyl)-5-methoxy-2-methyl-1H-indol-3-ene)acetic acid)]
EC50 [2]: 55.3 µM | EC50 [1]: 3.62 µM

C#Cc1cccc(Nc2ncnc3cc(OCCOC)c(OCCOC(=O)c4ccccc4OC(C)=O)cc23)c1 [Embodiment 3, 2-(4-(3-ethynylaniline)-7-(2-methoxyethoxy)quinazoline-6-oxy)ethyl-2-acetoxybenzoic acid]
EC50 [2]: 12.2 µM | EC50 [1]: 0.16 µM

C#Cc1cccc(Nc2ncnc3cc(OCCOC(=O)C(C)c4ccc(CC(C)C)cc4)c(OCCOC(=O)C(C)c4ccc(CC(C)C)cc4)cc23)c1 (stereo not shown) [Embodiment 18, 2,2′-(4-(3-ethynylaniline)quinazoline-6,7-diene)di(oxy)bis(ethyl-2,1-diene)-bis(2-(4-isobutylphenyl)propanoic acid)]
EC50 [2]: 805 µM

C#Cc1cccc(Nc2ncnc3cc(OCCOC)c(OCCOC(=O)C4=Cc5cc(Cl)c(C(C)(C)C)cc5OC4C(F)(F)F)cc23)c1 (stereo not shown) [Embodiment 4]
EC50 [2]: 32.9 µM | EC50 [1]: 0.61 µM

C#Cc1cccc(Nc2ncnc3cc(OCCOC(=O)C(C)c4ccc5cc(OC)ccc5c4)c(OCCOC)cc23)c1 (stereo not shown) [Embodiment 13, 2-(4-(3-ethynylaniline)-6-(2-methoxyethoxy)quinazoline-7-oxy)ethyl-2-(6-methoxylnaphthyl-2-ene)propanoic acid]
EC50 [2]: 27.2 µM | EC50 [1]: 0.09 µM

C#Cc1cccc(Nc2ncnc3cc(OCCOC(=O)Cc4c(C)n(C(=O)c5ccc(Cl)cc5)c5ccc(OC)cc45)c(OCCOC)cc23)c1 [Embodiment 14, 3-(4-(3-ethynylaniline)-6-(2-methoxyethoxy)quinazoline-7-oxy)ethyl-2-(1-(4-chlorobenzoyl)-5-methoxy-2-methyl-1H-indol-3-ene)acetic acid]
EC50 [2]: 95.8 µM | EC50 [1]: 0.63 µM

C#Cc1cccc(Nc2ncnc3cc(OCCOC(=O)C4=Cc5cc(Cl)c(C(C)(C)C)cc5OC4C(F)(F)F)c(OCCOC(=O)C4=Cc5cc(Cl)c(C(C)(C)C)cc5OC4C(F)(F)F)cc23)c1 (stereo not shown) [Embodiment 21, 2,2′-(4-(3-ethynylaniline)quinazoline-6,7-diene)di(oxy)bis(ethyl-2,1-diene)-bis(7-7-tert-butyl-6-chloro-2-(trifluoromethyl)-2H-pyran-3-carboxylic acid)]
EC50 [2]: 75.6 µM | EC50 [1]: 1.05 µM

C#Cc1cccc(Nc2ncnc3cc(OCCOC(=O)c4ccccc4OC(C)=O)c(OCCOC(=O)c4ccccc4OC(C)=O)cc23)c1 [Embodiment 19, 2,2′-(4-(3-ethynylaniline)quinazoline-6,7-diene)di(oxy)bis(ethyl-2,1-diene)-bis(2-acetoxylbenzoic acid)]
EC50 [2]: 41.7 µM | EC50 [1]: 0.2 µM

C#Cc1cccc(Nc2ncnc3cc(OCCOC(=O)c4ccccc4OC(C)=O)c(OCCOC)cc23)c1 [Embodiment 11, 2-(4-(3-ethynylaniline)-6-(2-methoxyethoxy)quinazoline-7-oxy)ethyl-2-acetoxyl benzoic acid]
EC50 [2]: 13.8 µM | EC50 [1]: 0.13 µM

C#Cc1cccc(Nc2ncnc3cc(OCCOC(=O)c4ccc(C(=O)Nc5ccc6c(c5)C(C)(C)CCC6(C)C)cc4)c(OCCOC(=O)c4ccc(C(=O)Nc5ccc6c(c5)C(C)(C)CCC6(C)C)cc4)cc23)c1 [Embodiment 24, 2,2′-(4-(3-ethynylaniline)quinazoline-6,7-diene)di(oxy)bis(ethyl-2,1-diene)-bis(4-(5,5,8,8-tetramethyl-5,6,7,8-tetralin-2-alkenylcarbamyl)benzoic acid)]
EC50 [2]: 52.9 µM | EC50 [1]: 1.14 µM

C#Cc1cccc(Nc2ncnc3cc(OCCOC(=O)C(C)c4ccc(CC(C)C)cc4)c(OCCOC)cc23)c1 (stereo not shown) [Embodiment 10, 2-(4-(3-ethynylaniline)-6-(2-methoxyethoxy)quinazoline-7-oxy)ethyl-2-(4-isobutylphenyl)propanoic acid]
EC50 [2]: 8.65 µM | EC50 [1]: 0.28 µM
